Data taken from patent US9456606B2, “Pesticidal mixtures” (Syngenta Participations AG, priority 2011, dated 2016).

System: Tetranvchus urticae (Two-Spotted Spider Mite)
Experiment: Tetranychus urticae bean leaf disc spray test, mobile stages mortality after 8 days, with COLBY expected action
Format: in vivo
Details: for C8 observed control %: C8 alone; for SPAT observed control %: SPAT alone; for DMET observed control %: DMET alone
Text: The action to be expected E for a given active ingredient combination obeys the so-called COLBY formula and can be calculated as follows (COLBY, S. R. “Calculating synergistic and antagonistic responses of herbicide combination”. Weeds, Vol. 15, pages 20-22; 1967):
According to COLBY, the expected (additive) action of active ingredients A)+B) using p+q ppm of active ingredient is
If the action actually observed (O) is greater than the expected action (E), then the action of the combination is super-additive, i.e. there is a synergistic effect. In mathematical terms the synergism factor SF corresponds to O/E. In the agricultural practice an SF of ≧1.2 indicates significant improvement over the purely complementary addition of activities (expected activity), while an SF of ≦0.9 in the practical application routine signals a loss of activity compared to the expected activity.
Tetranvchus urticae (Two-Spotted Spider Mite)
Bean leaf discs on agar in 24-well microtiter plates are sprayed with test solutions (DMSO). After drying, the leaf discs are infested with mite populations of mixed ages. 8 days later, discs are checked for mobile stages (I removed “mixed population”) mortality.
Columns 4 and 5 show the control observed from the compounds alone. […] When a compound applied alone gave no control at a particular rate, it is assumed that lower rates of that compound alone also give no control. DMET=deltamethrin, SPAT=spirotetramat, C8=compound 8 in Table C.

CCC(=O)NC1CCc2cc(C3=NOC(c4cc(Cl)cc(Cl)c4)(C(F)(F)F)C3)ccc21 (racemic) [C8]
C8 observed control % (0.094 ppm, Table 1): 0% | C8 observed control % (0.187 ppm, Table 1): 0% | C8 observed control % (0.375 ppm, Table 1): 0% | C8 observed control % (0.375 ppm, Table 2): 0% | C8 observed control % (0.75 ppm, Table 1): 25% | C8 observed control % (0.75 ppm, Table 2): 55% | C8 observed control % (1.5 ppm, Table 1): 65% | C8 observed control % (1.5 ppm, Table 2): 80% | C8 observed control % (3.0 ppm, Table 2): 95% | C8 observed control % (6.0 ppm, Table 2): 95%

CCOC(=O)OC1=C(c2cc(C)ccc2C)C(=O)N[C@]12CC[C@@H](OC)CC2 [SPAT, spirotetramat]
SPAT observed control % (1.56 ppm): 0% | SPAT observed control % (3.125 ppm): 0% | SPAT observed control % (3.25 ppm): 0% | SPAT observed control % (6.25 ppm): 25% | SPAT observed control % (12.5 ppm): 65% | SPAT observed control % (25 ppm): 80% | SPAT observed control % (50 ppm): 85% | SPAT observed control % (100 ppm): 85% | SPAT observed control % (.25 ppm): 80%

CC1(C)[C@H](C(=O)O[C@H](C#N)c2cccc(Oc3ccccc3)c2)[C@@H]1C=C(Br)Br [DMET, deltamethrin]
DMET observed control % (0.39 ppm): 0% | DMET observed control % (0.781 ppm): 0% | DMET observed control % (1.562 ppm): 0% | DMET observed control % (3.125 ppm): 0% | DMET observed control % (6.25 ppm): 75% | DMET observed control % (12.5 ppm): 80% | DMET observed control % (25 ppm): 90% | DMET observed control % (50 ppm): 90%
